Where “and” joins values, the source holds several entries; their conditions need not be identical. Equal values may be shown once.
Experiments:
Na+ channel (site 2) = assay: Off-target radioligand binding screen; details: Nec-1f 10 µM
CCK1 (CCKA) (h) = CCK1 (CCKA) (h) (Homo sapiens, UniProt P32238); assay: Off-target radioligand binding screen; details: read-out: CCK1 (CCKA) (h) (#): inhibition of radioligand binding
V1a(h) = V1a(h) (Homo sapiens, UniProt P37288); assay: Off-target radioligand binding screen; details: read-out: V1a(h) (#): inhibition of radioligand binding
N neuronal α4β2 (h) = N neuronal α4β2 (h) (Homo sapiens, UniProt P17787+P43681); assay: Off-target radioligand binding screen; details: read-out: N neuronal α4β2 (h) (#): inhibition of radioligand binding
kappa (h) (KOP) = kappa (h) (KOP) (Homo sapiens, UniProt P41145); assay: Off-target radioligand binding screen; details: read-out: kappa (h) (KOP) (#): inhibition of radioligand binding
D1(h) = D1(h) (Homo sapiens, UniProt P21728); assay: Off-target radioligand binding screen; details: read-out: D1(h) ($): inhibition of radioligand binding
A2A(h) = A2A(h) (Homo sapiens, UniProt P29274); assay: Off-target radioligand binding screen; details: read-out: A2A(h) (#): inhibition of radioligand binding
[1] = Stability in human plasma; assay type: in vitro ADME; details: 1 µM, 37 °C
Experimental: Plasma stability is defined as the percentage of parent compound remaining in plasma over the time. Here, incubations were carried out in 5 aliquots of 70 µl each (one for each time point), in duplicates. […] The percentage of the test compounds remaining after incubation in plasma and their half-lives (T1/2) was calculated.

MAO-A = MAO-A (Rattus norvegicus, UniProt P21396); assay: Off-target radioligand binding screen; details: read-out: MAO-A ($): inhibition of radioligand binding
CB1(h) = CB1(h) (Homo sapiens, UniProt P21554); assay: Off-target radioligand binding screen; details: read-out: CB1(h) (#): inhibition of radioligand binding
H2(h) = H2(h) (Homo sapiens, UniProt P25021); assay: Off-target radioligand binding screen; details: read-out: H2(h) ($): inhibition of radioligand binding
β1(h) = β1(h) (Homo sapiens, UniProt P08588); assay: Off-target radioligand binding screen; details: read-out: β1(h) (#): inhibition of radioligand binding
KV channel = assay: Off-target radioligand binding screen; details: Nec-1f 10 µM
5-HT2B(h) = 5-HT2B(h) (Homo sapiens, UniProt P41595); assay: Off-target radioligand binding screen; details: read-out: 5-HT2B(h) (#): inhibition of radioligand binding
H1(h) = H1(h) (Homo sapiens, UniProt P35367); assay: Off-target radioligand binding screen; details: read-out: H1(h) ($): inhibition of radioligand binding
α1A(h) = α1A(h) (Homo sapiens, UniProt P35348); assay: Off-target radioligand binding screen; details: read-out: α1A(h) ($): inhibition of radioligand binding
[2] = Inhibited co-autoxidation of cumene and STY-BODIPY (radical-trapping antioxidant activity); details: AIBN-initiated; even at 5-fold higher concentration than PMC
C57BL/6N mice [3] = assay: Acute oxalate nephropathy (CaOx-induced AKI); assay type: in vivo, mouse; details: sodium oxalate, 1.65 mg/kg Nec-1f, individual animals
GR (h) = GR (h) (Homo sapiens, UniProt P04150); assay: Off-target radioligand binding screen; details: read-out: GR (h) (#): inhibition of radioligand binding, Nec-1f 10 µM
5-HT1A(h) = 5-HT1A(h) (Homo sapiens, UniProt P08908); assay: Off-target radioligand binding screen; details: read-out: 5-HT1A(h) (#): inhibition of radioligand binding
M2 (h) = M2 (h) (Homo sapiens, UniProt P08172); assay: Off-target radioligand binding screen; details: read-out: M2 (h) ($): inhibition of radioligand binding
C57BL/6N mice [4] = assay: Acute oxalate nephropathy (CaOx-induced AKI); assay type: in vivo, mouse
Experimental: C57BL/6N mice were procured from Charles River Laboratories (Sulzfeld, Germany) and co-housed in groups of four in filter top cages with unlimited access to food and water. Cages, nestlets, food, and water were sterilized by autoclaving before use. Mice received a single intraperitoneal (i.p.) injection of 100 mg/kg sodium oxalate (Santa Cruz Biotechnology) and 3% sodium oxalate in drinking water and kidneys were harvested after 24 h. […] Blood and kidneys were collected at sacrifice by cervical dislocation. The middle section of each kidney was fixed for 24 h in formalin to be embedded in paraffin for histological analysis. Intrarenal crystal precipitations were quantified by Pizzolato staining. The experimental procedure was approved by the Regierung von Oberbayern, München, Germany (ROB-55.2-2532.Vet_02-18-127).
The tubular injury was scored by detecting the percentage of necrotic structures, dilated tubules, casts and cellular infiltrates per HPF. To do so a grid with a raster size of 2.5% of the total image area was imposed on top of each image and the number of squares covering either of the histopathological features was counted individually or as a composite (summary score). Pizzolato’s staining visualized calcium oxalate crystals and crystal deposit formation in the kidney was evaluated the following: no deposits = 0 point; crystals in papillary tip = 1 point; crystals in cortical medullary junction = 2 points; crystals in cortex = 3 points.
A TUNEL kit (Cell death detection kit, Roche) was used to quantify the number of cells with DNA strand breaks per HPF. The green fluorescent area was measured and the number of stained cells per slide was counted.

[5] = 24 h after CaOx, 1.65 mg/kg Nec-1f, individual animals, 1.65 mg/kg

N neuronal α4β2 (h), sequence (P43681 29-627 limits assumed): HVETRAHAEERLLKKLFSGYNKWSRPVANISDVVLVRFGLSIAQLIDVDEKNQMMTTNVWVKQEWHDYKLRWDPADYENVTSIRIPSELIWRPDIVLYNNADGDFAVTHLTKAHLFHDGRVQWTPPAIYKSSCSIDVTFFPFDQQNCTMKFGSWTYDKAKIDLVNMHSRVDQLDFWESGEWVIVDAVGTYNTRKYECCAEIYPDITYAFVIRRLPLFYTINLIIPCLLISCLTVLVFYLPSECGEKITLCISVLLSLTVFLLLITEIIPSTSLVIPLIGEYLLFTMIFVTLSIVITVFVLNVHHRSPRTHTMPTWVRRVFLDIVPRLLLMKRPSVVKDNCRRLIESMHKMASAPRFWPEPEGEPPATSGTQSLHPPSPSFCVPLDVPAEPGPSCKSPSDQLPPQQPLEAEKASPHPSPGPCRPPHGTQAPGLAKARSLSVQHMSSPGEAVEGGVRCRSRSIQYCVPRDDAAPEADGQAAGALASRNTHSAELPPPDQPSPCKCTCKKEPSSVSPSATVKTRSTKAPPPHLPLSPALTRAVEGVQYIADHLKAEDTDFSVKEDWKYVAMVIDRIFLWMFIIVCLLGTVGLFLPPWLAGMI
N neuronal α4β2 (h), sequence (P17787 26-502): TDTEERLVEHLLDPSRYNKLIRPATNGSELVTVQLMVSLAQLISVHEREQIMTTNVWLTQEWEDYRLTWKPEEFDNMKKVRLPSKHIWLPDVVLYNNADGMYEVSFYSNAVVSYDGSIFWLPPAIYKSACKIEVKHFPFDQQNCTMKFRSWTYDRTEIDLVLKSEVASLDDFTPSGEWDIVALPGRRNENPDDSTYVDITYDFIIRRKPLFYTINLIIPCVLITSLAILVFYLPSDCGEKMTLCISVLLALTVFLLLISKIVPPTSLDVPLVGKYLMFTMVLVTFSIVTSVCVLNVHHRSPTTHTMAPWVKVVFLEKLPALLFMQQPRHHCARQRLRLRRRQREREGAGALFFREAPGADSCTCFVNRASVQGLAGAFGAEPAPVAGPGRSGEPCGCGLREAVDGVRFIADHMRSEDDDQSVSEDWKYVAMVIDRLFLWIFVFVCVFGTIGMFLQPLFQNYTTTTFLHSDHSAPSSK
α1A(h), sequence (P35348 whole entry): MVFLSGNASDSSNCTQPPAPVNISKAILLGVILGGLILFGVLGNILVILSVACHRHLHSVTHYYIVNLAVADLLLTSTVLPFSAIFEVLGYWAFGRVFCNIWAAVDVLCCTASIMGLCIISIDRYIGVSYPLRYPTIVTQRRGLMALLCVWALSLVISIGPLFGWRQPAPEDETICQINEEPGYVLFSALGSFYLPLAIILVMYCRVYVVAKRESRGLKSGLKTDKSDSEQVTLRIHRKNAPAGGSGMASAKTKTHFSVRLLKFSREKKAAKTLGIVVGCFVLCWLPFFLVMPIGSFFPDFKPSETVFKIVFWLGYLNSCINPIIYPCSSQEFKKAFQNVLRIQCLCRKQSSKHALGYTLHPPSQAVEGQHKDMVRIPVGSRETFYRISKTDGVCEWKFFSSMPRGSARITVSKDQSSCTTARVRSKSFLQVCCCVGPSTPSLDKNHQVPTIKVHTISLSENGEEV
D1(h), sequence (P21728 whole entry): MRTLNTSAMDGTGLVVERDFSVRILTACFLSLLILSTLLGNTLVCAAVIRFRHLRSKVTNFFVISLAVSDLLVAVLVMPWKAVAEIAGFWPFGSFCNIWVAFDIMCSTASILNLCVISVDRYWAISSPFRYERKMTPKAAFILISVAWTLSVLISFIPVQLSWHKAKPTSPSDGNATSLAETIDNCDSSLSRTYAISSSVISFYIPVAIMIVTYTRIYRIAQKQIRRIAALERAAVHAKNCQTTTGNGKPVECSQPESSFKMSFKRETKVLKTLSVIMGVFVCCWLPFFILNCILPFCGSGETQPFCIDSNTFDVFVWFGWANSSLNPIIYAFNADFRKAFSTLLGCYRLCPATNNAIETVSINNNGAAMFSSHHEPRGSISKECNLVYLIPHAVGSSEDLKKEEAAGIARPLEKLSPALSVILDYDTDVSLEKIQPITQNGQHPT
CB1(h), sequence (P21554 whole entry): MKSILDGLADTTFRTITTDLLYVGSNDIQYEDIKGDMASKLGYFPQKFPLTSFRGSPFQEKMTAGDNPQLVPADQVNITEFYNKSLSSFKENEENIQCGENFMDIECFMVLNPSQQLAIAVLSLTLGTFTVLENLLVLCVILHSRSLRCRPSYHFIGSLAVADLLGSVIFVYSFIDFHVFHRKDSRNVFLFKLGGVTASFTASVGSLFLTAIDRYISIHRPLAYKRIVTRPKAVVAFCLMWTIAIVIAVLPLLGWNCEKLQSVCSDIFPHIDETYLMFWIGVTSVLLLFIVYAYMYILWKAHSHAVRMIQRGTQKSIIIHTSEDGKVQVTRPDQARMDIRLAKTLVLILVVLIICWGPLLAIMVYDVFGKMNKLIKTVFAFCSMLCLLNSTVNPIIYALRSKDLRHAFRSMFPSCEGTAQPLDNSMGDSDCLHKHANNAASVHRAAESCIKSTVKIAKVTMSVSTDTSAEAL
A2A(h), sequence (P29274 whole entry): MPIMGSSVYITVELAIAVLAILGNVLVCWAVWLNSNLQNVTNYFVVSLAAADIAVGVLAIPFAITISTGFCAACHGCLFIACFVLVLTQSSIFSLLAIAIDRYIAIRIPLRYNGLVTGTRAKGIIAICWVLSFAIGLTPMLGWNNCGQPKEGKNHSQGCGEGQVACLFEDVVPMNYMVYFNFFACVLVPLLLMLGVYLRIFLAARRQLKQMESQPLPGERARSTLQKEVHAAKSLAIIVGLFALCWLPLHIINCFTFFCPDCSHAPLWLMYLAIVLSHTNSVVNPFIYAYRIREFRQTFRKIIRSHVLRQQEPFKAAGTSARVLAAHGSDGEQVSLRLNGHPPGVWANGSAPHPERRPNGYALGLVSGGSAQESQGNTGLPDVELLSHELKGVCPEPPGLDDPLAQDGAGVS
β1(h), sequence (P08588 whole entry): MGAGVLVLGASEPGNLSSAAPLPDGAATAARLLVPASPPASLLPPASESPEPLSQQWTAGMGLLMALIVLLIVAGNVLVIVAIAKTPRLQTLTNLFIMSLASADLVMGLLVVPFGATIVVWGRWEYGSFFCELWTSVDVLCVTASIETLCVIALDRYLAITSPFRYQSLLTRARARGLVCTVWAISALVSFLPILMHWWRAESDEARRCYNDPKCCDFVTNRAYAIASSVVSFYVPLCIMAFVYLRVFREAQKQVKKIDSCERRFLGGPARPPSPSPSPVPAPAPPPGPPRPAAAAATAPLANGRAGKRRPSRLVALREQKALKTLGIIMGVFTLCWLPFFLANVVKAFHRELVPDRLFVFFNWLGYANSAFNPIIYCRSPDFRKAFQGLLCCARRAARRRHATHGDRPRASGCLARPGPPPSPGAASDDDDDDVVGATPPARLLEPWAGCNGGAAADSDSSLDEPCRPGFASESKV
M2 (h), sequence (P08172 whole entry): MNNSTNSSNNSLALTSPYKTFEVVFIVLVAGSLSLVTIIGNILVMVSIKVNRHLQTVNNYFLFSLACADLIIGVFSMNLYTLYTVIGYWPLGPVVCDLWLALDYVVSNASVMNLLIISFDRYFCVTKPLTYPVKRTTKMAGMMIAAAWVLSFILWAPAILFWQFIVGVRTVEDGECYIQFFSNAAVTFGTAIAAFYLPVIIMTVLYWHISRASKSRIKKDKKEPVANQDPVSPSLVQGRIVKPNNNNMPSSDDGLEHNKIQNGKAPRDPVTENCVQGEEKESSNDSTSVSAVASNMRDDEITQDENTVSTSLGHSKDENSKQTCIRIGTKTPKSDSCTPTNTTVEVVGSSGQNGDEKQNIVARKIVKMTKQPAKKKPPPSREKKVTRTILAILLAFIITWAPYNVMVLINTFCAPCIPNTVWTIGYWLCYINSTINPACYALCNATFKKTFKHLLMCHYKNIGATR
GR (h), sequence (P04150 whole entry): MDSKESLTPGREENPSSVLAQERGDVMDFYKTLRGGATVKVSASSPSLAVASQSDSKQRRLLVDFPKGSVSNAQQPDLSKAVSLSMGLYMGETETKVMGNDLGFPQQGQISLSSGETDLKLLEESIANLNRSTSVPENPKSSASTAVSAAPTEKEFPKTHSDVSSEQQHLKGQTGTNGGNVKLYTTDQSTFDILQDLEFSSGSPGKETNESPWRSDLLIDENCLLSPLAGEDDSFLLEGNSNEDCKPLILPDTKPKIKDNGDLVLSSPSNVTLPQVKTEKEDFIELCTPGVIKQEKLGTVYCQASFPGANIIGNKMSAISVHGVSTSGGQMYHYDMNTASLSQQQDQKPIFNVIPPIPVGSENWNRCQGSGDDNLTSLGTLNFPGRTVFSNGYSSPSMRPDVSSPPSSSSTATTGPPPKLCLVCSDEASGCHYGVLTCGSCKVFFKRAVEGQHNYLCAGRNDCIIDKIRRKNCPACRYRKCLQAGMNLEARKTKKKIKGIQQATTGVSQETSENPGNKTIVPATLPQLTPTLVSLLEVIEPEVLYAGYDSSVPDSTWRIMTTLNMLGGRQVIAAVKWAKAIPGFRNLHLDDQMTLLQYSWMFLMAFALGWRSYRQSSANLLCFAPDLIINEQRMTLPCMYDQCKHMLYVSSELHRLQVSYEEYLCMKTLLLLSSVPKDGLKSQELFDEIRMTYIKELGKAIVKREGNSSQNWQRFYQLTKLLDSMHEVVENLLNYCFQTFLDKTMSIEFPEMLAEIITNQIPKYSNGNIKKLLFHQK
H2(h), sequence (P25021 whole entry): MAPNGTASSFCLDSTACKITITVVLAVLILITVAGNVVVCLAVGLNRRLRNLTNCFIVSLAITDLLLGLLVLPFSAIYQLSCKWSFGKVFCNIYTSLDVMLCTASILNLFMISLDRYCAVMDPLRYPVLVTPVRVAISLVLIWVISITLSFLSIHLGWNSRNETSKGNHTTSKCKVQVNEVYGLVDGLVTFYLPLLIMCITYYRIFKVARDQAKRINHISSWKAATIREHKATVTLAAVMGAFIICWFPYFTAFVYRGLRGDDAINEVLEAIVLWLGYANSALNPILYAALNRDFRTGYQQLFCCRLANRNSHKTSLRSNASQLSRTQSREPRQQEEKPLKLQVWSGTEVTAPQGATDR

CN1C(=O)C(Cc2c[nH]c3c(Cl)cccc23)NC1=S (stereo not shown) [Nec-1f]
Na+ channel (site 2) ($): inhibition of radioligand binding (Na+ channel (site 2)): -14.5% | inhibition at 10 µM (CCK1 (CCKA) (h)): 28.3% | inhibition at 10 µM (V1a(h)): 29.3% | inhibition at 10 µM (N neuronal α4β2 (h)): 3.6% | inhibition at 10 µM (kappa (h) (KOP)): 16% | inhibition at 10 µM (D1(h)): 2.3% | inhibition at 10 µM (A2A(h)): -0.3% | Human plasma stability, parent compound remaining ([1]; 0 min): 100% | Human plasma stability, parent compound remaining ([1]; 20 min): 97% | Human plasma stability, parent compound remaining ([1]; 40 min): 93% | Human plasma stability, parent compound remaining ([1]; 60 min): 89% | Human plasma stability, parent compound remaining ([1]; 120 min): 82% | inhibition at 10 µM (MAO-A): 44.4% | inhibition at 10 µM (CB1(h)): -24.7% | inhibition at 10 µM (H2(h)): -27.4% | inhibition at 10 µM (β1(h)): 3.7% | KV channel ($): inhibition of radioligand binding (KV channel): 1.7% | inhibition at 10 µM (5-HT2B(h)): 16.7% | inhibition at 10 µM (H1(h)): 9.3% | inhibition at 10 µM (α1A(h)): 4.8% | Radical-trapping activity in cumene/STY-BODIPY co-autoxidation [2]: no activity | CaOx deposition score [1-10] (Pizzolato staining) (C57BL/6N mice [3]): 3 and 6 and 4 | inhibition at 10 µM (GR (h)): ≥ 50% | inhibition at 10 µM (5-HT1A(h)): 9.1% | inhibition at 10 µM (M2 (h)): -1.7% | CaOx crystal deposition vs vehicle (C57BL/6N mice [4]; 1.65 mg/kg body weight): comparable in both groups | Tubular injury vs vehicle (C57BL/6N mice [4]; 1.65 mg/kg body weight): reduced tubular injury | Serum creatinine (C57BL/6N mice [4]; [5]): 75 µmol/L and 84 µmol/L and 73 µmol/L and 71 µmol/L and 67 µmol/L and 78 µmol/L and 89 µmol/L and 69 µmol/L | Serum urea (C57BL/6N mice [4]; [5]): 70.6 mmol/L and 52 mmol/L and 57.6 mmol/L and 47.8 mmol/L and 51.8 mmol/L and 64.8 mmol/L and 59.8 mmol/L | Number of TUNEL-positive cells vs vehicle (C57BL/6N mice [4]; CaOx): significantly decreased | Serum creatinine vs vehicle (C57BL/6N mice [4]; CaOx, 1.65 mg/kg): lower concentrations | Serum urea vs vehicle (C57BL/6N mice [4]; CaOx, 1.65 mg/kg): lower concentrations | TUNEL (C57BL/6N mice [4]; kidneys 24 h after onset of CaOx treatment, Nec-1f, individual animals): 12.5 positive cells per HPF and 23.5 positive cells per HPF and 14 positive cells per HPF and 17 positive cells per HPF and 9.5 positive cells per HPF and 16 positive cells per HPF and 15 positive cells per HPF | Tubular injury (PAS) (C57BL/6N mice [4]; sodium oxalate, 1.65 mg/kg Nec-1f, individual animals, 1.65 mg/kg): 5.4 % area per HPF and 19.2 % area per HPF and 9 % area per HPF and 17.2 % area per HPF and 7.8 % area per HPF and 11.7 % area per HPF and 12.7 % area per HPF
